Consider one compound from patent US10322097B2, “Treatment of subjects with multidrug-resistant cancer” (priority 2015, dated 2019).

The test system of series [1] is A549 taxol-resistant lung cancer cells. As to the kind of experiment: Annexin V flow cytometry analysis of cell death. It counts as cell-based, human. Conditions: 24 h. Here is the method:
Annexin V flow cytometry analysis has been carried out. Cell death and viability were measured using an Annexin V staining kit (BD Biosciences, San Jose, Calif., USA).
Briefly, A549 taxol-resistant cancer cells were treated with 0.1-0.5 μM celastrol with or without 40 μM of taxol for 24 h. Cells were then harvested and analysed by multiparametric flow cytometry using FITC-Annexin V and propidium iodide staining (BD Biosciences, San Jose, Calif., USA) according to the manufacturer's instructions. Flow cytometry was then carried out using a FACSCalibur flow cytometer (BD Biosciences, San Jose, Calif., USA). Data acquisition and analysis was performed with CellQuest (BD Biosciences, San Jose, Calif., USA). Data were obtained from three independent experiments.

In series [2] the test system is MCF-7 (Breast) doxorubicin resistant cancer cells. As to the kind of experiment: MTT cytotoxicity assay, MCF-7 doxorubicin resistant. It counts as cell-based, human. The protocol: (§1) Cell cultures and cytotoxicity assays have been used. Celastrol was dissolved in DMSO at a final concentration of 100 mmol/L and stored at −20° C. Cytotoxicity was assessed using the 3-(4,5-dimethylthiazol-2-yl)-2,5-diphenyltetrazolium bromide assay. 4000 cells from MCF-7 doxorubicin sensitive/resistant breast cancer cells or CEM doxorubicin sensitive/resistant leukemia cells were seeded on 96-well plates per well. After overnight pre-incubation, the cells were exposed to different concentrations of celastrol (0.039-100 μmol/L) or doxorubicin for 3 days. Subsequently, 10 μL of MTT reagents were added to each well and incubated at 37° C. for 4 hours followed by the addition of 100 μL solubilization buffer (10% SDS in 0.01 mol/L HCl) and overnight incubation. Absorbance at 585 nm was determined from each well the next day. The percentage of cell viability was calculated using the following formula: Cell viability (%)=Cells number treated/Cells number DMSO control×100. Data were obtained from three independent experiments.

For series [3], the system named is MDA-MB-231/BCRP breast cancer cells. As to the kind of experiment: MTT cytotoxicity assay, MDA-MB-231/BCRP. It counts as cell-based. Here is the method: as §1, with “HEK293 and HEK293/ABCB5 kidney” for “MCF-7 doxorubicin sensitive/resistant breast”, “MDA-MB-231 pcDNA and MDA-MB-231/BCRP breast cancer” for “CEM doxorubicin sensitive/resistant leukemia”, “(0.1-10” for “(0.039-100”, “μmol/L)” for “μmol/L) or doxorubicin”

Series [4] relates to SGC-7901 (Gastric) cisplatin sensitive cancer cells. Briefly: MTT cytotoxicity assay, SGC-7901 cisplatin sensitive. It counts as cell-based, human. The settings on record: Homo sapiens, SGC-7901, 72 h, read-out: IC50 SGC-7901 (Gastric) (Cisplatin sensitive). Here is the method:
as §1, with “A2780 cisplatin” for “MCF-7 doxorubicin”, “ovarian” for “breast”, “SGC-7901 cisplatin” for “CEM doxorubicin”, “gastric cancer” for “leukemia”, “cisplatin” for “doxorubicin”

Series [5] relates to A549 (Lung) taxol resistant cancer cells. Briefly: MTT cytotoxicity assay, A549 taxol resistant. Type of series: cell-based, human. Here is the method:
Cell cultures and cytotoxicity assays have been used. Celastrol was dissolved in DMSO at a final concentration of 100 mmol/L and stored at −20° C. Cytotoxicity was assessed using the 3-(4,5-dimethylthiazol-2-yl)-2,5-diphenyltetrazolium bromide assay. 4000 cells from A549 (lung), A2780 (ovary), HCT-8 (colon) and MCF-7 (breast) cancer cells were seeded on 96-well plates per well. After overnight pre-incubation, the cells were exposed to different concentrations of celastrol (0.039-100 μmol/L) or taxol for 3 days. Subsequently, 10 μL of MTT reagents was added to each well and incubated at 37° C. for 4 hours followed by the addition of 100 μL solubilization buffer (10% SDS in 0.01 mol/L HCl) and overnight incubation. Absorbance at 585 nm was determined from each well the next day. The percentage of cell viability was calculated using the following formula: Cell viability (%)=Cells number treated/Cells number DMSO control×100. Data were obtained from three independent experiments.

Series [6] concerns A2780 (Ovary) cisplatin resistant cancer cells. Briefly: MTT cytotoxicity assay, A2780 cisplatin resistant. It counts as cell-based, human. The protocol: as §1, with “A2780 cisplatin” for “MCF-7 doxorubicin”, “ovarian” for “breast”, “SGC-7901 cisplatin” for “CEM doxorubicin”, “gastric cancer” for “leukemia”, “cisplatin” for “doxorubicin”
Series [7] concerns HCT116 p53-/- colon cancer cells. Briefly: MTT cytotoxicity assay, HCT116 p53-/-. Type of series: cell-based. Here is the method:
Cell cultures and cytotoxicity assays have been used. Celastrol was dissolved in DMSO at a final concentration of 100 mmol/L and stored at −20° C. Cytotoxicity was assessed using the 3-(4,5-dimethylthiazol-2-yl)-2,5-diphenyltetrazolium bromide assay. 4000 cells from HCT116 p53^+/+ or p53^−/− colon cancer cells and DLD-1 Bax-Bak^+/+ or Bax-Bak^−/− colon cancer cells were seeded on 96-well plates per well. […] Subsequently, 10 μL of MTT reagents were added to each well and incubated at 37° C. for 4 hours followed by the addition of 100 μL solubilization buffer (10% SDS in 0.01 mol/L HCl) and overnight incubation. […] The percentage of cell viability was calculated using the following formula: Cell viability (%)=Cells number treated/Cells number DMSO control×100. Data were obtained from three independent experiments.

In the case of `CC1=C(O)C(=O)C=C2C1=CC=C1[C@@]2(C)CC[C@@]2(C)[C@@H]3C[C@](C)(C(=O)O)CC[C@]3(C)CC[C@]12C` [Celastrol, celastrol], in series [1] (0.1-0.5 μM celastrol alone), the “cytotoxicity (cell death, Annexin V)” value is “limited cytotoxicity”. In series [1] (0.1-0.5 μM celastrol with 40 μM taxol), the “taxol-mediated cytotoxicity (cell death, Annexin V) on co-treatment” value was “significantly enhanced”. The IC50 in series [2] (Homo sapiens, MCF7, 72 h, read-out: IC50 MCF-7 (Breast) (Doxorubicin resistant)) was 950 nM; in series [3] (MDA-MB-231/BCRP, 72 h, MTT, 3 days) it was 6190 nM; in series [4], 1940 nM; in series [5] (Homo sapiens, A549, 72 h, read-out: IC50 A549 (Lung) (Taxol resistant)) it was 1000 nM; in series [6] (Homo sapiens, A2780, 72 h, read-out: IC50 A2780 (Ovary) (Cisplatin resistant)) it was 543 nM; in series [7] (Homo sapiens, HCT-116, 72 h, read-out: IC50 HCT116 p53-/- colon cancer cells), 484 nM. Moreover, the “Resistant Factor” value in series [2] (MCF-7 doxorubicin resistant versus doxorubicin sensitive) came to 0.84; in series [3] (IC50 MDA-MB-231/BCRP divided by IC50 MDA-MB-231 pcDNA), 1.28; in series [5] (A549 taxol resistant versus taxol sensitive) it was 0.42; in series [6] (A2780 cisplatin resistant versus cisplatin sensitive), 1.03; in series [7] (IC50 HCT116 p53-/- divided by IC50 HCT116 p53+/+), 0.58.
